US20100075960A1 (priority 2006, published 2010)

Legend:
HCT116 = assay: Inhibition of cell proliferation, HCT116; type: cell-based; settings: Homo sapiens, HCT-116; 72 h treatment; methylene blue or CellTiter-Glo
COLO205 = assay: Inhibition of cell proliferation, COLO205; type: cell-based; settings: Homo sapiens, COLO 205; Colon; 72 h; methylene blue or CellTiter-Glo
Procedure: (§1) II. Inhibition of Cell Proliferation by PLK1 Inhibitors.
(§2) Exponentially growing cell lines of different tumor origins, cultured in appropriate media containing 10% fetal bovine serum at 37° C. in a 5% CO2 incubator were plated in 96 or 384-well plates. Twenty four hours post-plating, cells were treated with different concentrations of test compounds ranging from 20 μM to 0.04 nM. Several wells were left untreated as a control. Seventy two hours post-treatment, cell numbers were determined using different techniques; 100 μl per well of methylene blue (Sigma M9140) (0.5% in 50:50 Ethanol:water), or 10-100 μl per well of CellTiter-Glo (Promega #G7573), depending on well size. For methylene blue staining, stain was incubated at room temperature for 30 minutes before plates were rinsed and dye solubilized in 1% N-lauroyl sarcosine, sodium salt, (Sigma L5125, in PBS). Plates were read on a microplate reader, measuring the OD at 620 nm. For CellTiter-Glo, plates were incubated at room temperature for 15 minutes and the chemiluminescent signal was read on the Victor V or Envison 2100 reader.
(§3) Percent inhibition of cell growth was expressed as percent proliferation relative to 100% proliferation (control). Concentration of test compound that inhibited 50% of cell growth (IC50) was determined by 4 parameter fit of data using XLfit, (value of no cell control was substracted from all samples for background). The data are shown in Table 1 and Table 2 below and represent a compilation of several different experiments each performed using the general parameters outlined above, although minor variations may have been employed in some instances, in Table 1 and Table 2, +=IC50>1 μM; ++=IC50 0.5-1 μM: +++=IC50<0.5 μM.

HT29 = assay: Inhibition of cell proliferation, HT29; type: cell-based; settings: Homo sapiens, HT-29; Colon; 72 h; methylene blue or CellTiter-Glo
Procedure: as §1, §2, §3

MX-1 = assay: Inhibition of cell proliferation, MX-1; type: cell-based; settings: Homo sapiens, MX1; Breast; 72 h; methylene blue or CellTiter-Glo
Procedure: as §1, §2, §3

SKOV-3 = assay: Inhibition of cell proliferation, SKOV-3; type: cell-based; settings: Homo sapiens, SK-OV-3; Ovarian; 72 h; methylene blue or CellTiter-Glo
Procedure: as §1, §2, §3

P388 = assay: Inhibition of cell proliferation, P388; type: cell-based; settings: Mouse leukemia, 72 h, methylene blue or CellTiter-Glo
Procedure: as §1, §2, §3

LNCaP = assay: Inhibition of cell proliferation, LNCaP; type: cell-based; settings: Homo sapiens, Prostate, 72 h, methylene blue or CellTiter-Glo
Procedure: as §1, §2
(§4) Percent inhibition of cell growth was expressed as percent proliferation relative to 100% proliferation (control). […]

H1299 = assay: Inhibition of cell proliferation, H1299; type: cell-based; settings: Homo sapiens, NCI-H1299; Lung; 72 h; methylene blue or CellTiter-Glo
Procedure: as §1, §2, §4

Hela = assay: Inhibition of cell proliferation, Hela; type: cell-based; settings: Homo sapiens, Cervical, 72 h, methylene blue or CellTiter-Glo
Procedure: as §1, §2, §4

HN5 = assay: Inhibition of cell proliferation, HN5; type: cell-based; settings: Homo sapiens; Head and neck; Table 2 first HN5 line; 72 h
Procedure: as §1, §2, §3

MCF7 = assay: Inhibition of cell proliferation, MCF7; type: cell-based; settings: Homo sapiens, Breast, 72 h, methylene blue or CellTiter-Glo
Procedure: as §1, §2, §4

MDA-MB-468 = assay: Inhibition of cell proliferation, MDA-MB-468; type: cell-based; settings: Homo sapiens, Breast, 72 h, methylene blue or CellTiter-Glo
Procedure: as §1, §2, §4

RPMI 8226 = assay: Inhibition of cell proliferation, RPMI 8226; type: cell-based; settings: Homo sapiens, leukemia, 72 h, methylene blue or CellTiter-Glo
Procedure: as §1, §2, §4

A549-L = assay: Inhibition of cell proliferation, A549-L; type: cell-based; settings: lung; 72 h; methylene blue or CellTiter-Glo
Procedure: as §1, §2, §3

PLK1 kinase domain = target: T1, PLK1 kinase domain (Homo sapiens, UniProt P53350); assay: Assay for inhibition of PLK1 (33P SPA kinase assay); type: biochemical; settings: 2 nM PLK1 kinase domain, 1 μM ATP, 1 μM substrate peptide; read-out: PLK1 pIC50 (converted)
T1 construct: His-tagged PLK kinase domain (amino acids 21-346 preceded by MKKGHHHHHHD); made in house; host or cells: baculovirus-infected T. ni insect cells
T1 sequence (P53350 21-346): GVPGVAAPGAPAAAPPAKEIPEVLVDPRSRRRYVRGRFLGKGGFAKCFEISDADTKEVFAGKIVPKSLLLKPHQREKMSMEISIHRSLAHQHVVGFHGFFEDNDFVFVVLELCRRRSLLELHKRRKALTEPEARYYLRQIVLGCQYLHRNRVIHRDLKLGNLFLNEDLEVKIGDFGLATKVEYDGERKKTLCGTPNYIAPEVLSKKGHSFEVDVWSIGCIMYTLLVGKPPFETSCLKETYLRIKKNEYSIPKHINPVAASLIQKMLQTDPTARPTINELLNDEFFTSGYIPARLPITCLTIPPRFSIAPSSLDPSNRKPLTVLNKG
Procedure: I. Assay for Inhibition of PLK1
A. Preparation of 6× N-Terminal His-Tagged PLK Kinase Domain
6× N-terminal His-tagged PLK kinase domain (amino acids 21-346 preceded by MKKGHHHHHHD) SEQ ID: No. 1. was prepared from baculovirus infected T. ni cells under polyhedrin promoter control. All procedures were performed at 4° C. Cells were lysed in 50 mM HEPES, 200 mM NaCl, 50 mM imidazole, 5% glycerol; pH 7.5. The homogenate was centrifuged at 14K rpm in a SLA-1500 rotor for 1 br and the supernatant filtered through a 1.2 micron filter. The supernatant was loaded onto a Nickel chelating Sepharose (Amersham Pharmacia) column and washed with lysis buffer. Protein was eluted using 20%, 30% and 100% buffer B steps where buffer B was 50 mM HEPES, 200 mM NaCl, 300 mM imidazole, 5% glycerol; pH 7.5. Fractions containing PLK were determined by SOS-PAGE. Fractions containing PLK were diluted five-fold with 50 mM HEPES, 1 mM DTT, 5% glycerol; pH 7.5, then loaded on an SP Sepharose (Amersham Pharmacia) column. After washing the column with 50 mM HEPES, 1 mM DTT, 5% glycerol; pH 7.5, PLK was step eluted with 50 mM HEPES, 1 mM DTT, 500 mM NaCl; 5% glycerol; pH 7.5. PLK was concentrated using a 10 kDa molecular weight cutoff membrane and then loaded onto a Superdex 200 gel filtration (Amersham Pharmacia) column equilibrated in 25 mM HEPES, 1 mM DTT, 500 mM NaCl, 5% glycerol; pH 7.5. Fractions containing PLK were determined by SDS-PAGE. PLK was pooled, aliquoted and stored at −80° C. Samples were quality controlled using mass spectrometry, N-terminal sequencing and amino acid analysis.
B. Enzyme Activity ± Inhibitors was Determined as Follows:
All measurements were obtained under conditions where signal production increased linearly with time and enzyme. Test compounds were added to white 384-well assay plates (0.1 μL for 10 μL and some 20 μL assays, 1 μL for some 20 μL assays) at variable known concentrations in 100% DMSO. DMSO (1-5% final, as appropriate) and EDTA (65 mM in reaction) as controls. Reaction Mix was prepared as follows at 22° C.: • 25 mM HEPES, pH 7.2 • 15 mM MgCl2 • 1 μM ATP • 0.05 μCi/well ^33P-γ ATP (10 Ci/mMol) • 1 μM substrate peptide (Biotin-Ahx-SFNDTLDFD) SEQ ID:No. 2. • 0.15 mg/mL BSA • 1 mM DTT • 2 nM PLK1 kinase domain (added last)
Reaction Mix (10 or 20 μL) was quickly added to each well immediately following addition of enzyme via automated liquid handlers and incubated 1-1.5 h at 22° C. […] Plates were sealed with dear plastic seals, spun at 500×g for 1 min or settled overnight, and counted in Packard TopCount for 30 seconds/well (regular SPA) or imaged using a Viewlux imager (LeadSeeker SPA). […]

C[C@@H](Oc1cc(-n2cnc3cc(Cl)ccc32)sc1C(N)=O)c1cccc(OC2CCN(C)CC2)c1Cl [Example 3, 5-(5-Chloro-1H-benzimidazol-1-yl)-3-((1R)-1-{2-chloro-3-[(1-methylpiperidin-4-yl)oxy]phenyl}ethoxy)thiophene-2-carboxamide]
IC50 (HCT116): < 500 nM
IC50 (COLO205): < 500 nM
IC50 (HT29): < 500 nM
IC50 (MX-1): < 500 nM
IC50 (SKOV-3): < 500 nM
IC50 (P388): < 500 nM

C[C@@H](Oc1cc(-n2cnc3cc(-c4cnn(C)c4)ccc32)sc1C(N)=O)c1cccc(OC2CCN(CCS(C)(=O)=O)CC2)c1Cl [Example 31, 3-({(1R)-1-[2-Chloro-3-({1-[2-(methylsulfonyl)ethyl]-4-piperidinyl}oxy)phenyl]ethyl}oxy)-5-[5-(1-methyl-1H-pyrazol-4-yl)-1H-benzimidazol-1-yl]-2-thiophenecarboxamide]
IC50 (HCT116): < 500 nM
IC50 (COLO205): < 500 nM
IC50 (HT29): < 500 nM
IC50 (MX-1): < 500 nM
IC50 (SKOV-3): < 500 nM
IC50 (LNCaP): 500 to 1000 nM
IC50 (H1299): < 500 nM
IC50 (Hela): < 500 nM
IC50 (HN5): < 500 nM
IC50 (MCF7): < 500 nM
IC50 (MDA-MB-468): < 500 nM
IC50 (RPMI 8226): < 500 nM

C[C@@H](Oc1cc(-n2cnc3cc(-c4cnn(C)c4)ccc32)sc1C(N)=O)c1cccc(OCC2CCN(C)CC2)c1Cl [Example 45, 3-{[(1R)-1-(2-Chloro-3-{[(1-methyl-4-piperidinyl)methyl]oxy}phenyl)ethyl]oxy}-5-[5-(1-methyl-1H-pyrazol-4-yl)-1H-benzimidazol-1-yl]-2-thiophenecarboxamide]
IC50 (HCT116): < 500 nM
IC50 (A549-L): < 500 nM
IC50 (COLO205): < 500 nM
IC50 (HT29): < 500 nM
IC50 (MX-1): < 500 nM
IC50 (SKOV-3): < 500 nM
IC50 (P388): < 500 nM

C[C@@H](Oc1cc(-n2cnc3cc(-c4cnn(C)c4)ccc32)sc1C(N)=O)c1cccc(OC2CCNCC2)c1Cl [Example 47, 3-({(1R)-1-[2-Chloro-3-(4-piperidinyloxy)phenyl]ethyl}oxy)-5-[5-(1-methyl-1H-pyrazol-4-yl)-1H-benzimidazol-1-yl]-2-thiophenecarboxamide]
IC50 (HCT116): < 500 nM
IC50 (A549-L): < 500 nM
IC50 (COLO205): < 500 nM
IC50 (HT29): < 500 nM
IC50 (MX-1): < 500 nM
IC50 (SKOV-3): < 500 nM
IC50 (P388): < 500 nM

Cc1cc(-c2ccc3c(c2)ncn3-c2cc(O[C@H](C)c3cccc(OC4CCNCC4)c3Cl)c(C(N)=O)s2)ccn1 [Example 49, 3-({(1R)-1-[2-Chloro-3-(4-piperidinyloxy)phenyl]ethyl}oxy)-5-[5-(2-methyl-4-pyridinyl)-1H-benzimidazol-1-yl]-2-thiophenecarboxamide]
IC50 (HCT116): < 500 nM
IC50 (COLO205): < 500 nM
IC50 (HT29): < 500 nM
IC50 (MX-1): < 500 nM
IC50 (SKOV-3): < 500 nM

C[C@@H](Oc1cc(-n2cnc3ccc(CS(C)(=O)=O)cc32)sc1C(N)=O)c1cccc(OC[C@H]2CCCN2C)c1Cl [Example 58, 3-({(1R)-1-[2-chloro-3-({[(2R)-1-methyl-2-pyrrolidinyl]methyl}oxy)phenyl]ethyl}oxy)-5-{6-[(methylsulfonyl)methyl]-1H-benzimidazol-1-yl}-2-thiophenecarboxamide]
IC50 (PLK1 kinase domain): < 100 nM
IC50 (HCT116): > 1000 nM

C[C@@H](Oc1cc(-n2cnc3cc(S(C)(=O)=O)ccc32)sc1C(N)=O)c1cccc(OC2CCNCC2)c1Cl [Example 59, 3-({(1R)-1-[2-chloro-3-(4-piperidinyloxy)phenyl]ethyl}oxy)-5-[5-(methylsulfonyl)-1H-benzimidazol-1-yl]-2-thiophenecarboxamide]
IC50 (PLK1 kinase domain): < 100 nM
IC50 (HCT116): > 1000 nM

C[C@@H](Oc1cc(-n2cnc3ccc(S(C)(=O)=O)cc32)sc1C(N)=O)c1cccc(OC2CCNCC2)c1Cl [Example 60, 3-({(1R)-1-[2-chloro-3-(4-piperidinyloxy)phenyl]ethyl}oxy)-5-[6-(methylsulfonyl)-1H-benzimidazol-1-yl]-2-thiophenecarboxamide]
IC50 (PLK1 kinase domain): < 100 nM
IC50 (HCT116): > 1000 nM

C[C@@H](Oc1cc(-n2cnc3cc(F)c(F)cc32)sc1C(N)=O)c1cccc(OC2CCN(C)CC2)c1Cl [Example 66, 3-[((1R)-1-(2-chloro-3-[(1-methyl-4-piperidinyl)oxy]phenyl}ethyl)-oxy]-5-(5,6-difluoro-1H-benzimidazol-1-yl)-2-thiophenecarboxamide]
IC50 (HCT116): < 500 nM
IC50 (COLO205): < 500 nM
IC50 (HT29): < 500 nM
IC50 (MX-1): < 500 nM
IC50 (SKOV-3): < 500 nM
IC50 (P388): < 500 nM

CC(Oc1cc(-n2cnc3cc(-c4cnn(C)c4)ccc32)sc1C(N)=O)c1cc(OC2CCN(C)CC2)ccn1 (stereo not shown) [Example 86, 3-[(1-{4-[(1-Methyl-4-piperidinyl)oxy]-2-pyridinyl}ethyl)oxy]-5-[5-(1-methyl-1H-pyrazol-4-yl)-1H-benzimidazol-1-yl]-2-thiophenecarboxamide]
IC50 (PLK1 kinase domain): < 100 nM
IC50 (HCT116): > 1000 nM

Cc1nnc(-c2ccc3c(c2)ncn3-c2cc(O[C@H](C)c3cccc(OC4CCN(C)CC4)c3Cl)c(C(N)=O)s2)o1 [Example 88]
IC50 (HCT116): < 500 nM
